Results reported in article PMC9823088, “The oral selective estrogen receptor degrader GDC-0810 (ARN-810) in postmenopausal women with hormone receptor-positive HER2-negative (HR + /HER2 −) advanced/metastatic breast cancer” (Breast Cancer Research and Treatment, 2022).

Test: Safety: adverse events (NCI-CTCAE v4.0), DLT, MTD, RP2D
Format: in vivo
Description: AEs were assessed using the National Cancer Institute-Common Terminology Criteria for Adverse Events (NCI-CTCAE v4.0). […] The protocol-defined GDC-0810-specific AEs of special interest (AESI) which were non-serious adverse events that required expedited reporting to the sponsor, included DLTs occurring during the DLT assessment window, grade ≥ 2 vomiting/diarrhea, grade ≥ 3 nausea, grade ≥ 2 thromboembolic events, grade ≥ 2 vaginal or uterine hemorrhage, and grade ≥ 3 elevation of ALT or AST.
Analyses of safety, pharmacokinetics, anti-tumor activity, and data from the FES-PET imaging correlative studies were planned. Confirmatory inferential analyses and imputation for missing data were not planned due to the exploratory nature of this study. Descriptive statistics were used to summarize patient data. The number of patients to be enrolled was dependent upon the observed safety and pharmacokinetic profile during dose escalations. The safety- and efficacy-evaluable population included patients who received at least one dose of the study drug. Safety was assessed through summaries of DLTs, AEs, changes in select laboratory test results, vital signs, ECGs, and changes in endometrial thickness. Objective response (with confirmation) and clinical benefit rates (CBR) were derived per RECIST v1.1 and summarized by dose level and cohort. […]
polyps, endometrial cancer, endometrial hyperplasia, and other significant disorders); any […]
disease or chronic diarrhea, short bowel syndrome, or upper gastrointestinal surgery; known human immunodeficiency virus (HIV) infection; known clinically significant history of liver disease; major surgery within 4 weeks prior to enrollment; or radiation therapy within 2 weeks […]
There were phase-specific exclusion criteria as well. In phase Ib, cohort C1 excluded patients with a history of venous thromboembolic event requiring therapeutic anticoagulation or vaginal bleeding within 2 months prior to enrollment. In phase IIa, cohorts A1 and A2 excluded patients with >1 chemotherapy in the advanced/metastatic disease setting. In phase IIa, cohort B1 excluded patients with >1 prior AI in the advanced/metastatic disease setting or prior […]
In phase IIa, cohort B2 excluded patients with >1 prior AI or >1 prior chemotherapy in the advanced/metastatic disease setting.
Patients in phase Ia in dose escalation received oral doses of GDC-0810 during 28-day cycles given once daily (QD) or twice-daily (BID), with fasting and without fasting, and with a single dose given on day −7 leading into cycle 1. The starting dose in the first cohort was 100 mg per day based on preclinical studies. Dose escalation to 200 mg and by 200 mg increments in successive cohorts occurred in the absence of dose-limiting toxicities (DLTs), or conditionally in the presence of DLTs. A DLT was defined as any adverse event (AE) occurring during the DLT window deemed by the investigator or sponsor to be related to the study drug unless they were clearly related to disease progression or other cause; DLT incidences were evaluated from day […]
patients in a dose cohort experienced a DLT, 3 additional patients were assigned to that dose; dose escalation to the next level proceeded if DLTs were experienced by ≤1 patient out of 6. If ≥2 patients experienced DLTs at a given dose, a lower dose was to be declared the maximum […]
Phase Ib was a dose-escalation study of GDC-0810 starting at 400 mg QD, as […]
Phase IIa explored the recommended phase 2 dose (RP2D) from phase Ia. All patients received GDC-0810 600 mg under non-fasting conditions. Cohorts A1 and A2 enrolled patients with tumors harboring ESR1 mutations with no prior fulvestrant use in cohort A1 while prior fulvestrant use was allowed in cohort A2. Cohorts B1 and B2 enrolled patients whose disease had progressed and who may have had one or no AI therapy; there was no prior fulvestrant use in cohort B1 while prior fulvestrant use was allowed in cohort B2.
Patients in all three study phases continued treatment until unacceptable toxicity, disease

[1] = phase 1a (n=41), grade 3, cohort 200 mg
[2] = phase 1a (n=41), grade 3, cohort 300 mg, BID
[3] = phase 1a (n=41), grade 3, cohort 600 mg
[4] = phase 1a (n=41), grade 3, cohort 800 mg, non-fasting
[5] = phase 1a (n=41), grade 4, cohort 600 mg, non-fasting
[6] = phase 1a (n=41), grade 5, cohort 600 mg, non-fasting
[7] = phase IIa A1, 600 mg QD, n = 19
[8] = phase IIa A2, 600 mg QD, n = 10
[9] = phase IIa B1, 600 mg QD, n = 53
[10] = phase IIa B2, 600 mg QD, n = 19

CC/C(=C(/c1ccc(/C=C/C(=O)O)cc1)c1ccc2[nH]ncc2c1)c1ccc(F)cc1Cl [GDC-0810]
tolerability based on frequency of gastrointestinal AEs (800 mg daily): intolerable | patients who reported SAEs regardless of attribution (across all 3 phases): 33 patients | AST increased, Grades 3–5 (all 3 study phases, N = 152): 4 (3) n (%) | AST increased, all grades (all 3 study phases, N = 152): 26 (17) n (%) | Abdominal pain, Grades 3–5 (all 3 study phases, N = 152): 3 (2) n (%) | Abdominal pain, all grades (all 3 study phases, N = 152): 28 (18) n (%) | Anemia, Grades 3–5 (all 3 study phases, N = 152): 4 (3) n (%) | Anemia, all grades (all 3 study phases, N = 152): 34 (22) n (%) | Arthralgia, Grades 3–5 (all 3 study phases, N = 152): 0 n (%) | Arthralgia, all grades (all 3 study phases, N = 152): 32 (21) n (%) | Constipation, Grades 3–5 (all 3 study phases, N = 152): 1 (1) n (%) | Constipation, all grades (all 3 study phases, N = 152): 42 (28) n (%) | Cough, Grades 3–5 (all 3 study phases, N = 152): 1 (1) n (%) | Cough, all grades (all 3 study phases, N = 152): 30 (20) n (%) | Decreased appetite, Grades 3–5 (all 3 study phases, N = 152): 0 n (%) | Decreased appetite, all grades (all 3 study phases, N = 152): 38 (25) n (%) | Diarrhea, Grades 3–5 (all 3 study phases, N = 152): 7 (5) n (%) | Diarrhea, all grades (all 3 study phases, N = 152): 95 (63) n (%) | Dyspepsia, Grades 3–5 (all 3 study phases, N = 152): 1 (1) n (%) | Dyspepsia, all grades (all 3 study phases, N = 152): 30 (20) n (%) | Fatigue, Grades 3–5 (all 3 study phases, N = 152): 6 (4) n (%) | Fatigue, all grades (all 3 study phases, N = 152): 77 (51) n (%) | Flatulence, Grades 3–5 (all 3 study phases, N = 152): 0 n (%) | Flatulence, all grades (all 3 study phases, N = 152): 29 (19) n (%) | Nausea, Grades 3–5 (all 3 study phases, N = 152): 1 (1) n (%) | Nausea, all grades (all 3 study phases, N = 152): 82 (54) n (%) | Vomiting, Grades 3–5 (all 3 study phases, N = 152): 4 (3) n (%) | Vomiting, all grades (all 3 study phases, N = 152): 47 (31) n (%) | patients experiencing ≥ 1 AE regardless of causality (all who received the study drug): All patients | dose-limiting toxicity (DLT) (dose escalation, 35-day DLT window, diarrhea, 800-mg QD): one and a DLT | ER agonist effects on the lipid profiles of patients (in vivo): no clinically significant ER agonist effects | patients who reported SAEs regardless of attribution (phase 1a): 13 n | SAE Pneumothorax (phase 1a (n=41), grade 1, cohort 800 mg, non-fasting): 1 (2%) n (%) | SAE Presyncope (phase 1a (n=41), grade 2, cohort 300 mg, BID): 1 (2%) n (%) | SAE Urinary tract infection (phase 1a (n=41), grade 3, cohort 100 mg): 1 (2%) n (%) | SAE Abdominal pain [1]: 1 (2%) n (%) | SAE Nausea [1]: 1 (2%) n (%) | SAE Vomiting [1]: 1 (2%) n (%) | SAE Skin infection [2]: 1 (2%) n (%) | SAE Venous thrombosis [2]: 1 (2%) n (%) | SAE Anemia [3]: 1 (2%) n (%) | SAE Ascites [3]: 1 (2%) n (%) | SAE Adrenal insufficiency [4]: 1 (2%) n (%) | SAE Fatigue [4]: 1 (2%) n (%) | SAE Pulmonary embolism (phase 1a (n=41), grade 4, cohort 300 mg, BID, related to study drug): 1 (2%) n (%) | SAE Thrombocytopenia (phase 1a (n=41), grade 4, cohort 600 mg): 1 (2%) n (%) | SAE Cardiac arrest [5]: 1 (2%) n (%) | SAE Hyponatremia [5]: 1 (2%) n (%) | SAE Cardiac failure [6]: 1 (2%) n (%) | SAE Metastases to peritoneum [6]: 1 (2%) n (%) | SAE Blood bilirubin increased (phase 1a (n=41), grade 5, cohort 800 mg): 1 (2%) n (%) | patients who reported SAEs regardless of attribution (phase 1b): 3 n | patients who reported SAEs regardless of attribution (phase 2a): 17 n | deaths (phase IIa): 3 deaths | AST increased, Grades 3–5 [7]: 0 n (%) | AST increased, all grades [7]: 1 (5) n (%) | Abdominal pain, Grades 3–5 [7]: 1 (5) n (%) | Abdominal pain, all grades [7]: 3 (16) n (%) | Anemia, Grades 3–5 [7]: 0 n (%) | Anemia, all grades [7]: 2 (11) n (%) | Arthralgia, Grades 3–5 [7]: 0 n (%) | Arthralgia, all grades [7]: 4 (21) n (%) | Constipation, Grades 3–5 [7]: 0 n (%) | Constipation, all grades [7]: 2 (11) n (%) | Cough, Grades 3–5 [7]: 0 n (%) | Cough, all grades [7]: 2 (11) n (%) | Decreased appetite, Grades 3–5 [7]: 0 n (%) | Decreased appetite, all grades [7]: 6 (32) n (%) | Diarrhea, Grades 3–5 [7]: 0 n (%) | Diarrhea, all grades [7]: 10 (53) n (%) | Dyspepsia, Grades 3–5 [7]: 0 n (%) | Dyspepsia, all grades [7]: 6 (31) n (%) | Fatigue, Grades 3–5 [7]: 0 n (%) | Fatigue, all grades [7]: 8 (42) n (%) | Flatulence, Grades 3–5 [7]: 0 n (%) | Flatulence, all grades [7]: 4 (21) n (%) | Nausea, Grades 3–5 [7]: 0 n (%) | Nausea, all grades [7]: 8 (42) n (%) | Vomiting, Grades 3–5 [7]: 2 (11) n (%) | Vomiting, all grades [7]: 8 (42) n (%) | AST increased, Grades 3–5 [8]: 0 n (%) | AST increased, all grades [8]: 2 (20) n (%) | Abdominal pain, Grades 3–5 [8]: 0 n (%) | Abdominal pain, all grades [8]: 0 n (%) | Anemia, Grades 3–5 [8]: 1 (10) n (%) | Anemia, all grades [8]: 2 (20) n (%) | Arthralgia, Grades 3–5 [8]: 0 n (%) | Arthralgia, all grades [8]: 0 n (%) | Constipation, Grades 3–5 [8]: 0 n (%) | Constipation, all grades [8]: 0 n (%) | Cough, Grades 3–5 [8]: 0 n (%) | Cough, all grades [8]: 1 (10) n (%) | Decreased appetite, Grades 3–5 [8]: 0 n (%) | Decreased appetite, all grades [8]: 3 (30) n (%) | Diarrhea, Grades 3–5 [8]: 1 (10) n (%) | Diarrhea, all grades [8]: 5 (50) n (%) | Dyspepsia, Grades 3–5 [8]: 1 (10) n (%) | Dyspepsia, all grades [8]: 2 (20) n (%) | Fatigue, Grades 3–5 [8]: 0 n (%) | Fatigue, all grades [8]: 2 (20) n (%) | Flatulence, Grades 3–5 [8]: 0 n (%) | Flatulence, all grades [8]: 0 n (%) | Nausea, Grades 3–5 [8]: 0 n (%) | Nausea, all grades [8]: 6 (60) n (%) | Vomiting, Grades 3–5 [8]: 0 n (%) | Vomiting, all grades [8]: 4 (40) n (%) | AST increased, Grades 3–5 [9]: 2 (4) n (%) | AST increased, all grades [9]: 4 (8) n (%) | Abdominal pain, Grades 3–5 [9]: 1 (2) n (%) | Abdominal pain, all grades [9]: 10 (19) n (%) | Anemia, Grades 3–5 [9]: 1 (2) n (%) | Anemia, all grades [9]: 6 (11) n (%) | Arthralgia, Grades 3–5 [9]: 0 n (%) | Arthralgia, all grades [9]: 14 (26) n (%) | Constipation, Grades 3–5 [9]: 1 (2) n (%) | Constipation, all grades [9]: 16 (30) n (%) | Cough, Grades 3–5 [9]: 1 (2) n (%) | Cough, all grades [9]: 8 (15) n (%) | Decreased appetite, Grades 3–5 [9]: 0 n (%) | Decreased appetite, all grades [9]: 9 (17) n (%) | Diarrhea, Grades 3–5 [9]: 5 (9) n (%) | Diarrhea, all grades [9]: 29 (55) n (%) | Dyspepsia, Grades 3–5 [9]: 0 n (%) | Dyspepsia, all grades [9]: 6 (11) n (%) | Fatigue, Grades 3–5 [9]: 2 (4) n (%) | Fatigue, all grades [9]: 27 (51) n (%) | Flatulence, Grades 3–5 [9]: 0 n (%) | Flatulence, all grades [9]: 13 (25) n (%) | Nausea, Grades 3–5 [9]: 0 n (%) | Nausea, all grades [9]: 24 (45) n (%) | Vomiting, Grades 3–5 [9]: 1 (2) n (%) | Vomiting, all grades [9]: 14 (26) n (%) | AST increased, Grades 3–5 [10]: 0 n (%) | AST increased, all grades [10]: 1 (5) n (%) | Abdominal pain, Grades 3–5 [10]: 0 n (%) | Abdominal pain, all grades [10]: 1 (5) n (%) | Anemia, Grades 3–5 [10]: 1 (5) n (%) | Anemia, all grades [10]: 4 (21) n (%) | Arthralgia, Grades 3–5 [10]: 0 n (%) | Arthralgia, all grades [10]: 0 n (%)
